In patent US20260234159A1, “SMALL MOLECULE TREATMENT OF FATTY LIVER DISEASE AND HCC” (SCANDIEDGE THERAPEUTICS AB, priority 2023, published 2026):
Read-outs that look alike come from different tables or passages of the source.

Assays:
[1] = target: T1, JNK1 (Homo sapiens, UniProt P45983); experiment: JNK enzyme activity assay, purified JNK1; assay type: biochemical; settings: 10 μM, Phospho-c Jun (Ser 73) by western blot
T1 construct: purchased Thermo Fisher PV3319
Method: (§1) JNK activity was measured with JNK Activity Assay Kit (ab273417, Abcam). JNK activity assay was performed with purified JNK, JNK1 (PV3319, Thermo Fisher), JNK2 (PV3620, Thermo Fisher) JNK3(PV4563, Thermo Fisher). 0.3 μg of each JNK purified protein were incubated with c-Jun Protein/ATP in Kinase Assay Buffer for 1 hr followed by manufacturer's instruction with 10 μM small molecules. Catalysed substrate Phospho-c Jun (Ser 73) was detected by western blot analysis. Western blot analysis performed with JNK Activity Assay kit supplied anti-Phospho-cJun (Ser 73) Specific Antibody at 1:10,000 for overnight and Goat Anti-Rabbit HRP (ab205718, abeam) at 1:10,000 for 1 hr incubation as primary and secondary antibody.

[2] = target: T2, JNK3 (Homo sapiens, UniProt P53779); experiment: JNK enzyme activity assay, purified JNK3; assay type: biochemical; settings: 10 μM; greatest inhibition was obtained for JNK3
T2 construct: purchased Thermo Fisher PV4563
Method: as §1

[3] = target: T3, JNK2 (Homo sapiens, UniProt P45984); experiment: JNK enzyme activity assay, purified JNK2; assay type: biochemical; settings: 10 μM, Phospho-c Jun (Ser 73) by western blot
T3 construct: purchased Thermo Fisher PV3620
Method: as §1

[4] = test system: HepG2 cells; experiment: Triglyceride (TAG) measurement assay, one week steatosis model; assay type: cell-based, human; settings: Homo sapiens
Method: (§2) HepG2 wild type cells were purchased from genome engineering company Synthego. Cells were maintained with Roswell Park Memorial Institute growth media, RPMI, 1640 (R2405, Sigma-Aldrich) and supplemented with 10% fetal bovine serum (FBS, F7524, Sigma-Aldrich), 1% penicillin-streptomycin (P/S, P4333, Sigma-Aldrich). Steatosis induction media was prepared as high glucose Dulbecco's Modified Eagle Media (DMEM, D0819, Sigma-Aldrich) with 10% FBS, 1% P/S media supplemented with 10 μg/ml insulin (I9278, Sigma-Aldrich), and 10 μM T0901317 (T2320, Sigma-Aldrich). HepG2 cells were seeded 6×10^4 cells per well for 96-well plate and 1×10^6 cells per well for 6-well plate. HepG2 cells were incubated with steatosis induce media (SM) for one week by 3 day+2 day+2 day with total three times media exchange.
HepG2 cells were seeded at 6×10^4 cells per well into 96 well plate and induced steatosis for one week with 10 μM of target drugs. After steatosis induction, cells were washed with 200 μl of phosphate buffered saline (PBS) and triglyceride contents was measured by Triglyceride Assay Kit—Quantification (ab65336, Abcam) following manufacturer's instruction. Optical density (O.D) values were detected with microplate reader at 570 nm (Hidex Sense Beta Plus).
(§3) HepG2 cells were seeded at 60,000 cells per well in 96 well plate. Using steatosis induce media, the cells were treated with 10 μM of target drugs for one week. The media was changed 3 times at day 0, day 3 and day 5. TAG assay was performed using MAK266-1KT SDS Triglyceride Quantification Colorimetric kit and cell viability analysis was performed using MTT assay.

[5] = test system: JNK protein; experiment: Cellular thermal shift assay (CETSA), protein-ligand binding; parameters: species or system human; settings: 10 μM, 60° C.; versus JNK-IN-5A
Method: HepG2 cells were trypsinized and calculated at 1×10^6 cells into 1.5 ml micro centrifuge tube with 100 μl cell culture media. Cells were incubated in a CO2 incubator at 37° C. for 1 hr with 10 μM of each target drug. Drug treated cells were heated at 60° C. for 3 min using a heat plate. Heated cells were lysed with Native lysis buffer (ab156035, Abcam). Thermal shifted JNK proteins were detected with western blot analysis using JNK1+2+3 antibody (Ab179461, Abcam) and band intensity was analysed with ImageJ program.

[6] = MTT cell viability after one week steatosis (ranking of target molecules); assay type: cell-based, human; settings: human, HepG2 cells (wild type); HepG2, 10 μM, one week steatosis induce media, MTT; Control 100.00
Method: as §2, §3

[7] = test system: HepG2 cells; experiment: Mitochondrial membrane potential assay (TMRE); assay type: cell-based, human; settings: 10 μM, one day
Method: HepG2 cells were seeded into a 6-well plate at 400,000 cells per well. After treatment with the compounds at desired concentration and time, TMRE (ab113852, abcam), Autophagy (ab139484, abcam), ROS (ab113851, abcam), and Lipid peroxidation (ab243377, abcam) assay were performed according to manufacturer's instructions. Fluorescence images were taken using ZOE™ Fluorescent Cell Imager (Biorad) and ROI of fluorescence intensity was measured and calculated by Image J. For microplate reader florescence assay, 40,000 of HepG2 cells were seeded into a 96-well plate and triplicated. GFP (Ex480 nm, Em530 nm) and RFP (Ex549 nm, Em574 nm) were measured using a microplate reader (Hidex Sense Meta Plus).

[8] = test system: HepG2 cells; experiment: MTT cell viability / IC50 in growth media; assay type: cell-based, human; settings: Homo sapiens, 48 h; HepG2, treatment for 2 days, 30 μM to 30 nM
Method: (§4) The cytotoxic effects of the synthesized drugs on the HepG2 cells were tested by MTT (Thiazolyl Blue Tetrazolium Bromide) method. HepG2 cells were seeded 2×10^4 cells per well in 96-well plate in 200 μL growth media. […] After the incubation period, 5 mg/ml MTT (M2128, Sigma-Aldrich) solution in PBS (10 μL) was added to each well. After 1 hr, the MTT solution and all media were removed from the wells. 100 μl of DMSO was added and mixed to dissolve the formazan crystals. Cell viability was analysed by measuring the absorbance of the dissolved formazan in a microplate reader at a wavelength of 570 nm with microplate reader (Hidex Sense Beta Plus).
(§5) HepG2 cells were maintained and used with RPMI 1640 (R2405, Sigma-Aldrich) supplemented with 10% fetal bovine serum (F7524, Sigma-Aldrich), 1% P/S (P4333, Sigma-Aldrich). 20,000 cells per well of HepG2 cells were seeded into a 96-well plate and triplicated for MTT assay and LDH assay. Cell viability was measured by MTT assay (M6494, ThermoFisher) and cytotoxicity was measured by LDH assay kit (ab65393, abcam) by following manufacturer's instructions. Optical density (O.D) was numerated using a microplate reader (Hidex Sense Meta Plus).

[9] = MTT cell viability / IC50 in growth media; assay type: cell-based, human; settings: human, HepG2 cells; 10 μM, treatment for 2 days
Method: as §4, §5

[10] = test system: HepG2 cells; experiment: Invasion assay (transwell); assay type: cell-based, human; settings: Homo sapiens, HepG2, 24 hr, read-out: invasiveness reduced by
Method: The effects of the treatment with the compounds on the invasion ability of HepG2 and Huh7 cells were determined by 8 μm pores transwell chamber (Corning™ 3464, USA).
(§6) Transwell membrane was coated with 100 μl collagen (Sigma C3867, USA) diluted with PBS to a concentration of 1 mg/ml. After overnight incubation at 4° C., the collagen solution was discarded and the membrane was washed with PBS. 100,000 cells in 200 μl serum free media together with the tested compounds were added into the upper well and 600 μl of 10% FBS supplemented growth media was added to the lower well as an invasive attractant in a 24-well plate. Cells were incubated at 37° C. in a CO2 incubator for one day. The cells were fixed with 3.7% formaldehyde for 30 minutes at room temperature and washed with PBS twice. The cells were stained with 1% crystal violet in PBS for 20 minutes and residual cells in inner membrane were swabbed gently with a cotton swab. Invaded cells located at the outer membrane were imaged by ZOE Fluorescent Cell Imager (Bio-Rad, USA) and counted by image. For wound healing assay, 100,000 cells per well were seeded into 24-well plates and grown until 95-100% confluent. Linear wound was created by using a 200 μl pipette tip. Image was recorded at the time point of day 0 until control group wound closure with 1 μM of compounds by ZOE Fluorescent Cell Imager (Bio-Rad, USA). Wound areas were measured using ImageJ software.

[11] = test system: JNK1/2/3; experiment: Western blot, JNK1/2/3 P54 and p46 isoforms; assay type: cell-based, human; settings: 10 μM, 2 days
Method: HepG2 cells were seeded into a 6-well plate at 400,000 cells per well. After treatment with 10 μM of JNK-IN-5A and its derivatives for two days, lysates were harvested with CelLytic M (C2978, Sigma-Aldrich). […] SDS PAGE were performed using Mini-PROTEAN® TGX™ Precast Gels (Bio-Rad) and transferred using Trans-Blot® Turbo™ Transfer System (Bio-Rad). […] ImageQuantTMLAS 500 (29-0050-63, GE) was used to detect protein bands.

[12] = test system: HepG2 cells; experiment: FACs analysis with PI staining (cell cycle); assay type: cell-based, human; settings: PI FACs, 10 μM, 2 days
Method: 400,000 HepG2 cells were seeded in a 6-well plated and treated with 10 μM of the compounds for 2 days. Cells were fixed with 70% ethanol and stained with 50 μg/ml PI. Prepared cells were analysed using BD FACS Canto II Flow Cytometry system at PE-A channel 10,000 cells per group. The data was histogram plotted with BD FACSDiva 9.0.

[13] = test system: HepG2 cells; experiment: Wound healing assay; assay type: cell-based; settings: Homo sapiens, HepG2, 96 h, day 4, untreated 100% wound closure, read-out: wound healing delayed by
Method: as §6

[14] = test system: HepG2 cells; experiment: MTT cell viability after one week steatosis (ranking of target molecules); assay type: cell-based, human
Method: as §2, §3

[15] = 168 h, HepG2, 10 μM, one week steatosis induce media, Control 100.00, read-out: TAG (%)
[16] = HepG2, 168 h, ratio between TAG content and cell viability, Control 100.0, read-out: TAG/cell viability

T3 sequence (P45984 whole entry): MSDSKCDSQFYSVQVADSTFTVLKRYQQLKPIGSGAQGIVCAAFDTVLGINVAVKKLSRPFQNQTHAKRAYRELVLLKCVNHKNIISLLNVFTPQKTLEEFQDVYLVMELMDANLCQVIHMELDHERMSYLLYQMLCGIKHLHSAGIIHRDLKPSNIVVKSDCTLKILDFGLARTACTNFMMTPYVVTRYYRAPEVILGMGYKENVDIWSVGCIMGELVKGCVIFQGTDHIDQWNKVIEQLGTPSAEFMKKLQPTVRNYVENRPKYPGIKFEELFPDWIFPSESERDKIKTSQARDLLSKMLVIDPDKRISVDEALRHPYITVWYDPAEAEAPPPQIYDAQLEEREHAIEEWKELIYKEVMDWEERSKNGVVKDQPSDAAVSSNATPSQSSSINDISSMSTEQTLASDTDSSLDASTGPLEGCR
T1 sequence (P45983 whole entry): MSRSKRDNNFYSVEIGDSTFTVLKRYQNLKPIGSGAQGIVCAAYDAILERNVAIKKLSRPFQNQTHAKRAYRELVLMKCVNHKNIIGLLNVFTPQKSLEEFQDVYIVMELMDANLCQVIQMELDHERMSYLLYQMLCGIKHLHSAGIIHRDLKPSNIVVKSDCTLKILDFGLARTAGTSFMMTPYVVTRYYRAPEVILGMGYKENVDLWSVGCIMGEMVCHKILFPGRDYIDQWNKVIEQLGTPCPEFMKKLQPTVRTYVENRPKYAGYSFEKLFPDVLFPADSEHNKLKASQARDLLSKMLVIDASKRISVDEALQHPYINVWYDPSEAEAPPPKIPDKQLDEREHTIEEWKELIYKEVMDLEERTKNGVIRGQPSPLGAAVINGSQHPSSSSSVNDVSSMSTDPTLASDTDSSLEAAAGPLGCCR
T2 sequence (P53779 whole entry): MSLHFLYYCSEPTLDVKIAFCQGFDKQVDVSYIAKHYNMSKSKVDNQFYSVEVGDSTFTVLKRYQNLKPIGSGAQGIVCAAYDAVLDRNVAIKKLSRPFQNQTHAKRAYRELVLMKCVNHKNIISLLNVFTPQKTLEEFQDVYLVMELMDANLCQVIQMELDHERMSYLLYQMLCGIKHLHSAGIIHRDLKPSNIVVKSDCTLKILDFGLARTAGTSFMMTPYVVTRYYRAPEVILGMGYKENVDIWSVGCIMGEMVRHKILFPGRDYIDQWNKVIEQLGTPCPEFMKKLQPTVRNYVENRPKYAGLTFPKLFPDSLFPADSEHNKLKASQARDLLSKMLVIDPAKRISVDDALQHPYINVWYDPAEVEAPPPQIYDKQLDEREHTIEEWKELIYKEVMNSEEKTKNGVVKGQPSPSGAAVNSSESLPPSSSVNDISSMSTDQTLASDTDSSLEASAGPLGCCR

SMILES | JNK1 activity [1] | JNK3 activity [2] | JNK2 activity [3] | binding to the JNK protein [5] | IC50 [8] | activity at 10 µM [4, 15] | activity at 10 µM [4, 16] | viability at 1 week, 10 µM [6] | mitochondrial membrane potential [7] | viability at 2 days, 10 µM [9] | inhibition at 1 µM [10] | JNK1/2/3 p46 expression [11] | Cell population G0/G1 [12] | Cell population G2/M [12] | Cell population S [12] | inhibition at 1 µM [13] | cell viability of HepG2 [14]
N#Cc1c(NC(=O)c2cccc3ccccc23)sc2c1CCN(C(=O)Nc1ccccc1C(F)(F)F)C2 [PKL-A158] |  |  |  |  | 7.6 µM | 8.35% |  | 9.59% | significantly decreased | 51.9% | 20.8% | not significantly altered | 31.6 | 60.3 | 3.5 | 39.5% | exceptionally low cell viability
N#Cc1c(NC(=O)c2cccc3ccccc23)sc2c1CCN(C(=O)Nc1ccccc1Cl)C2 [PKL-A156] |  |  |  |  | 15.9 µM | 13.5% | 50.8% | 26.6% | significantly decreased | 53.7% | 14% | not significantly altered | 30.1 | 60.8 | 2.3 | 26.2% | exceptionally low cell viability
COc1ccc(C(=O)N2CCc3c(sc(NC(=O)c4cccc5ccccc45)c3C#N)C2)cc1OC [PKL-A132] | inhibited | inhibited | inhibited | better binding |  | 12.8% | 31.9% | 40.3% |  |  |  |  |  |  |  |  | 
N#Cc1c(NC(=O)c2cccc3ccccc23)sc2c1CCN(C(=O)Nc1ccccc1F)C2 [PKL-A119] | inhibited | inhibited | inhibited | better binding |  | 12.5% | 31.2% | 40.1% |  |  |  |  |  |  |  |  | 

Continued, in another order:

JNK1 activity [1] | JNK3 activity [2] | JNK2 activity [3] | binding to the JNK protein [5] | IC50 [8] | SMILES | activity at 10 µM [4, 15] | activity at 10 µM [4, 16] | viability at 1 week, 10 µM [6] | mitochondrial membrane potential [7] | viability at 2 days, 10 µM [9] | inhibition at 1 µM [10] | JNK1/2/3 p46 expression [11] | Cell population G0/G1 [12] | Cell population G2/M [12] | Cell population S [12] | inhibition at 1 µM [13] | cell viability of HepG2 [14]
inhibited | inhibited | inhibited | better binding |  | CN(C)C(=O)N1CCc2c(sc(NC(=O)c3cccc4ccccc34)c2C#N)C1 [PKL-A117] | 12.8% | 31.4% | 40.6% |  |  |  |  |  |  |  |  | 
inhibited | inhibited | inhibited | better binding |  | CC(C)(C)OC(=O)N1CCc2c(sc(NC(=O)c3cccc4ccccc34)c2C#N)C1 [PKL-A131] | 13.1% | 29.3% | 44.8% |  |  |  |  |  |  |  |  | 
